“And” between values parts separate entries of the source, which are not always exact repeats. Equal values may be shown once. Read-outs that look alike come from different tables or passages of the source. Numbered stars: 1 amine (or outer) side, 2 acyl side, 3 side chain; on linkers, the order of the positions; unused ones are H or OH. Bridge positions count the residues as written; N and C are the ends. Square brackets hold non-standard residues; d marks the D form. Peptide text beside a SMILES is read from it. Abu(4-yl) = O=C([C@H](CC[*:3])N[*:1])[*:2]; X1 = O=C([C@@H](O)CS[*:2])[*:1]; X2 = O=C(CCC[*:2])[*:1]
Tests used:
[1] = tested on: OXT-receptor compartment of the potassium depolarized rat myometrium; test: Oil-immersion (stopped-transport) and washout time–response experiments on myometrium strips; conditions: for Cumulative clearance k r + κ / k r (transport rate constant between receptor compartment and aqueous medium) / κ Observed (irreversible clearance rate constant in the receptor compartment): K+-depolarized rat myometrium strip ex vivo, 30°C, arithmetic mean ± SD of computation runs; for Cumulative clearance k r + κ: washout decay phase; for k r (transport rate constant between receptor compartment and aqueous medium): from combined oil-immersion and washout data; for κ Observed (irreversible clearance rate constant in the receptor compartment): high potassium Ringer medium (Ca2+, Mg2+ 0.5 mM), oil-immersion decay phase, isometric tension, nonlinear regression; for κ (N) − κ (D): κ-difference of coherent N & D pairs, value shared by both peptides of the pair, C1,6OT/DC1,6OT pair uses predicted κ
Source text: (§1) Female virgin Sprague–Dawley rats (body weight approximately 200 g) in natural oestrus (detected by vaginal smears) were sacrificed by decapitation, both uterus horns were dissected and the perimetrium was pulled off. Their middle sections (approximately 15 mm) were longitudinally cut into 3‐ to 4‐mm strips; the endometrium (the inward layer of the horns) was removed by scraping. In average, three strips of each animal (31 rats in total) were used in the experiments.
(§2) A stripe was mounted in an adapted annealed organ chamber (17 mm × 65 mm) with a ventilation inlet tube containing 10‐ml Munsick medium (see above) and attached to an isometric force transducer. The basic tension was adjusted to 10 ± 0.2 mN (1 gf, gram‐force). Measurements were carried out at 30°C under continuous ventilation with Carbogen gas (25% O2 + 5% CO2). […] Each strip used for stimulation by a single peptide (for concentration of stimulating agents, cf. Table 2). Oil‐immersion and washout experiments were carried out on different strips from the same animal. Stimulation runs (two to four per strip) for each peptide were repeated on strips of different rat uteri.
(§3) Tonic contraction of the depolarized myometrium strips in a high potassium Ringer organ bath medium[46] (concentration of Ca^2+ and of Mg^2+: 0.5 mM) was elicited by roughly equipotent concentrations of single peptides around their D 2 values (the concentration causes the half of the maximally attainable contraction in oestrogen‐dominated myometrium). After reaching a steady‐state level (stimulation phase), the medium was exchanged by a low viscosity paraffin oil (oil‐immersion phase) or alternatively by the peptide‐free bath medium (washout phase). The time‐tension profiles of the strip were recorded by an isometric force transducer (Statham strain gauge UC3).
(§4) We employed here its modified version focused on the comparison of clearance and transport rate constants (Figure 2). It consists virtually of two distribution spaces: the receptor compartment (subscript r; see Section 4) and the external aqueous tissue medium (w). The rate of mass transport of agents through the tissue‐medium interface (transport constants k r , k w ) is directly proportional to the rate constant of diffusion k (dimension: volume/time) and inversely proportional to the respective compartment volume V r , V w : for the receptor compartment k r = k/V r , for the medium k w = k/V w . The constant κ relates to the (irreversible) clearance rate from the receptor compartment (dimension: time^−1). The rate equations determining the time response of the peptide concentrations in the corresponding compartments (c r , c w ) are then (1a) c˙w=−kcw−cr/Vw, (1b) c˙r=kcw−cr/Vr−κcr, wherein dotted symbols denote first derivatives with respect to time t: x˙≡dx/dt . • In the stimulation phase, concentration c w is expected to be constant, c w = c 0 (and c˙w=0 ) within the time interval of stimulation; the integration of Equation 1b yields (2) crt=cr,∞1−e^−kr+κt, where c r,∞ is a steady state value of c r , (3) cr,∞≡limt→∞crt=c0kr/kr+κ.
(§5) • In the wash‐out decay phase, the concentration in the external medium (c w ) is kept zero by a quick perifusion; c r,∞ is the initial value (t = 0), i.e., a c r steady state value before termination of the stimulation phase, (4) crt=cr,∞e^−kr+κt.
(§6) The sum k r + κ stands for the cumulative clearance rate constant of the peptide in the receptor compartment. • The insertion of oil (oil‐immersion decay phase) reduces the volume V w to a small residual aqueous layer v w around the tissue; obviously, v w ≪ V w and the corresponding modified mass transport rate constant kw′=k/vw is very large, limvw→0kw′=∞ .

[2] = tested on: OXT-receptor compartment of the potassium depolarized rat myometrium; test: Fragmented inactivation model of GOT and DGOT (oil-immersion time–response data); format: in vitro ADME; conditions: for κ AM (rate constant of residual clearance) / κ c (rate constant of ester hydrolysis [Glu(OMe)^4]‐X → [Glu^4]‐X): K+-depolarized rat myometrium, oil-immersion, arithmetic mean ± SD; for κ AM (rate constant of residual clearance): assumption κ A ≈ κ M, runs in parentheses; for κ c (rate constant of ester hydrolysis [Glu(OMe)^4]‐X → [Glu^4]‐X): nonlinear regression Equation 17, number of computation runs in parentheses, 95% confidence limits in < >; for Δκ AM: difference of mean values κ AM (GOT) − κ AM (DGOT), expected rate constant of N-terminal (aminopeptidase) splitting; for Estimates of κ: κ AM + κ c: sum of fragments
Source text: This is an alternative to model represented by Equation 12b, whereε A (t), ε M (t) are response fractions of the respective primary agents and of its active metabolite(s) (16a) ε˙At=−κc+κAεAt, (16b) ε˙Mt=κcεAt−κMεMt.
Figure 6 depicts the proposed reaction scheme.
Δ α = α M /α A is the standardised biological activity (e.g., in IU/mg). Exponential constants for GOT and DGOT were obtained by the nonlinear regression analysis using numeric procedures described above and are summarized in Table 3.

[3] = human, in vivo; cited from earlier work
[4] = rats, cited from earlier work
[5] = tested on: OXT-receptor compartment of the potassium depolarized rat myometrium
Source text: as §1, §2, §3, §4, §5, §6

[6] = tested on: uterus; conditions: cited from earlier work

Row | Molecule | Cumulative clearance k r + κ [1] [min⁻¹] | k r (transport rate constant between receptor compartment and aqueous medium) [1] [min⁻¹] | κ Observed (irreversible clearance rate constant in the receptor compartment) [1] | κ (N) − κ (D) [1] [min⁻¹] | further results
1 | CC[C@H](C)[C@@H]1NC(=O)[C@H](Cc2ccc(O)cc2)NC(=O)[C@@H](N)CSSC[C@@H](C(=O)N2CCC[C@H]2C(=O)N[C@@H](CC(C)C)C(=O)NNC(N)=O)NC(=O)[C@H](CC(N)=O)NC(=O)[C@H](CCC(N)=O)NC1=O [AOT, [9‐Azaglycine]‐OXT] | 0.278 ± 0.015 | 0.158 ± 0.020 | 0.118 ± 0.008 min⁻¹ | 0.076 | 
2 | CC[C@H](C)[C@@H]1NC(=O)[C@H](Cc2ccc(O)cc2)NC(=O)[C@@H](N)CCCC[C@@H](C(=O)N2CCC[C@H]2C(=O)N[C@@H](CC(C)C)C(=O)NCC(N)=O)NC(=O)[C@H](CC(N)=O)NC(=O)[C@H](CCC(N)=O)NC1=O [C1,6OT, [1,6‐α′,α‐diaminosuberic acid]‐OXT] | 0.263 ± 0.009 | 0.194 ± 0.011 | 0.076 ± 0.005 min⁻¹ |  | 
3 | CC[C@H](C)[C@@H]1NC(=O)[C@H](Cc2ccc(O)cc2)NC(=O)CCSSC[C@@H](C(=O)N2CCC[C@H]2C(=O)N[C@@H](CC(C)C)C(=O)NNC(N)=O)NC(=O)[C@H](CC(N)=O)NC(=O)[C@H](CCC(N)=O)NC1=O [DAOT, [1‐β‐mercaptopropionic acid, 9‐azaglycine]‐OXT] | 0.194 ± 0.033 | 0.139 ± 0.044 | 0.042 ± 0.015 min⁻¹ | 0.076 | 
4 | CC[C@H](C)[C@@H]1NC(=O)[C@H](Cc2ccc(O)cc2)NC(=O)CCCSC[C@@H](C(=O)N2CCC[C@H]2C(=O)N[C@@H](CC(C)C)C(=O)NCC(N)=O)NC(=O)[C@H](CC(N)=O)NC(=O)[C@H](CCC(N)=O)NC1=O [DC1OT, [1,6‐(2‐Amino‐4‐thiasuberic acid)]‐OXT] (YIQNCPLG-NH2; linker N-5 via X2) | 0.160 ± 0.021 | 0.097 ± 0.025 | 0.102 ± 0.016 min⁻¹ | 0.060 | 
5 | CC[C@H](C)[C@@H]1NC(=O)[C@H](Cc2ccc(O)cc2)NC(=O)CCSSC[C@@H](C(=O)N2CCC[C@H]2C(=O)N[C@@H](CC(C)C)C(=O)NCC(N)=O)NC(=O)[C@H](CC(N)=O)NC(=O)[C@H](CCC(=O)OC)NC1=O [DGOT, [1‐β‐mercaptopropionic acid, 4‐glutamic acid‐δ‐methylester]‐OXT] | 0.211 ± 0.027 | 0.107 ± 0.034 | 0.076 ± 0.018 min⁻¹ and 0.076 min⁻¹ | 0.092 | κ AM (rate constant of residual clearance) [2]: 0.053 ± 0.014 (14) <0.045; 0.061> min^−1; κ c (rate constant of ester hydrolysis [Glu(OMe)^4]‐X → [Glu^4]‐X) [2]: 0.032 ± 0.011 (14) <0.025; 0.038> min^−1; Δκ AM [2]: 0.081 min⁻¹; Estimates of κ: κ AM + κ c [2]: 0.085 min⁻¹
6 | CC[C@H](C)[C@@H]1NC(=O)[C@H](Cc2ccc(O)cc2)NC(=O)CCSSC[C@@H](C(=O)N2CCC[C@H]2C(=O)N[C@@H](CC(C)C)C(=O)NCC(N)=O)NC(=O)[C@H](CC(N)=O)NC(=O)[C@H](CCC(N)=O)NC1=O [DOT, [1‐β‐mercaptopropionic acid]‐OXT] | 0.176 ± 0.024 | 0.149 ± 0.026 | 0.049 ± 0.021 min⁻¹ | 0.088 | 
7 | CC[C@H](C)[C@@H]1NC(=O)[C@H](Cc2ccc(O)cc2)NC(=O)[C@@H](N)CSSC[C@@H](C(=O)N2CCC[C@H]2C(=O)N[C@@H](CC(C)C)C(=O)NCC(N)=O)NC(=O)[C@H](CC(N)=O)NC(=O)[C@H](CCC(=O)OC)NC1=O [GOT, [4‐Glutamic acid‐δ‐methylester]‐OXT] | 0.267 | 0.108 | 0.166 min⁻¹ | 0.092 | κ AM (rate constant of residual clearance) [2]: 0.134 ± 0.025 (12) <0.132; 0.135> min^−1; κ c (rate constant of ester hydrolysis [Glu(OMe)^4]‐X → [Glu^4]‐X) [2]: 0.033 ± 0.012 (22) <0.028; 0.038> min^−1; Δκ AM [2]: 0.081 min⁻¹; Estimates of κ: κ AM + κ c [2]: 0.167 min⁻¹
8 | CC[C@H](C)[C@@H]1NC(=O)[C@H](Cc2ccc(O)cc2)NC(=O)[C@@H](O)CSSC[C@@H](C(=O)N2CCC[C@H]2C(=O)N[C@@H](CC(C)C)C(=O)NCC(N)=O)NC(=O)[C@H](CC(N)=O)NC(=O)[C@H](CCC(N)=O)NC1=O [HOT, [1‐(2‐Hydroxy‐3‐β‐mercaptopropanoic acid)]‐OXT] (YIQNCPLG-NH2; linker N-5 via X1) | 0.289 ± 0.010 | 0.139 ± 0.012 | 0.141 ± 0.008 min⁻¹ |  | 
9 | CC[C@H](C)[C@@H]1NC(=O)[C@H](Cc2ccc(O)cc2)NC(=O)[C@@H](N)CSSC[C@@H](C(=O)N2CCC[C@H]2C(=O)N[C@@H](CC(C)C)C(=O)NCC(N)=O)NC(=O)[C@H](CC(N)=O)NC(=O)[C@H](CCC(N)=O)NC1=O [OXT, Oxytocin, reference compound] | 0.254 ± 0.028 | 0.137 ± 0.030 | 0.137 ± 0.025 min⁻¹ | 0.088 | half‐life in the blood plasma [3]: 1.5 to 8 min; half‐life ([4]; regardless of gender and reproductive cycle): 1.65 min; elimination rate constant ([4]; related to the half-life of 1.65 min): 0.6 min⁻¹
10 | CC[C@H](C)[C@@H]1NC(=O)[C@H](Cc2ccc(O)cc2)NC(=O)[C@@H](N)CCSC[C@@H](C(=O)N2CCC[C@H]2C(=O)N[C@@H](CC(C)C)C(=O)NCC(N)=O)NC(=O)[C@H](CC(N)=O)NC(=O)[C@H](CCC(N)=O)NC1=O [Peptide C1OT, [6,1‐Cystathionine]‐OXT] (H-[Abu(4-yl)]YIQNCPLG-NH2; thioether 1-6) | 0.272 ± 0.037 | 0.116 ± 0.041 | 0.162 ± 0.032 min⁻¹ | 0.060 | 
11 | [6,1‐(2‐Amino‐4‐thiasuberic acid)]‐OXT [DC6OT] |  |  |  |  | Cumulative clearance k r + κ [5]: 0.147 ± 0.015 min⁻¹; κ Observed (irreversible clearance rate constant in the receptor compartment) [5]: 0.105 ± 0.008 min⁻¹
12 | [7‐glycine]‐oxytocin |  |  |  |  | ex vivo half‐life of uterotonic response as compared with oxytocin [6]: considerably shorter half‐life

From paper PMC9286045 (Journal of Peptide Science, 2021)
